Assays:
[1] = system: homologous passive cutaneous anaphylaxis (PCA) reaction; assay: Effect on homologous passive cutaneous anaphylaxis (PCA) reaction in rats; assay type: in vivo, rats (Male wistar rats); details: Rattus norvegicus, 0.5 h; 100 mg/kg oral, 1 hour before antigen, rats; Table 3
Method: This experimental animal model is caused by immediate type allergic reaction, namely, antigen-antibody reaction. In the following, the method of this pharmacological test will be explained.
Method: Male wistar rats (9 weeks old) were intradermally administered 0.05 ml of anti-serum against trinitrophenylated ascaris (TNP-As) into two sites on the shaved dorsal skin. 48 hours later, 3-glycosyloxybenzopyran derivatives and 4-glycosyloxybenzopyran derivatives (test compounds) suspended in 0.5% sodium carboxymethylcellulose (CMCNa) were given orally at a dose of 100 mg/kg to the animals. 1 hour after administration of Test compounds, the animals were induced anaphylaxis by injection of saline (1 ml) dissolving 5 mg of Evans Blue and 1 mg of TNP-As into the tail vein of the animals. 30 minutes after induction of anaphylaxis, animals were anesthetized by ether and killed by bleeding, and were flayed dorsal skin. The leakage of dye was assessed by measuring the diameter (mean of shortest and longest diameter) of the blue spot on the inside surface of dorsal skin. As vehicle control group, only 0.5% CMCNa solution was administered orally, and as positive control group, Tranilast suspended in 0.5% CMCNa were administered orally at a dose of 100 mg/kg to the animals with the same method as the test compounds groups. Each experimental group consisted of 5 rats. [formula] In equation 1: A: leakage of dye in vehicle control group
B: leakage of dye in test compound group or in positive control group
The anti-allergic activity of the compounds of the present invention were compared with that of analogous compounds which were published in the Patent (EP-A-0598117) by PCA reaction. This pharmacological test was performed according to the method described in Test Example 1.

[2] = system: contact dermatitis induced by picryl chloride; assay: Effect on contact dermatitis induced by picryl chloride in mice (delayed type hypersensitization); assay type: in vivo; details: Mus musculus; 100 mg/kg oral, ear thickness 24 hours after challenge; Table 6; read-out: Inhibition (%) against the increase of ear thickness
Method: The delayed type hypersensitization is inhibited by steroid, but can not be effected by known anti-allergic agents. In the following, the method of the pharmacological test will be explained.
Method: Mice, shaved their abdominal skin on previous day, were immunized by applying 0.1 ml of acetone containing 7 mg of picryl chloride to the skin of the abdomen. 7 days after immunization, the thickness of the ear was measured with a dial thickness gauge, then mice were challenged by painting 5 μl of 1% picryl chloride olive oil solution to each side skin of left ear. 24 hours after challenge, the thickness of the left ear was measured again and the increase (%) of thickness was calculated according to equation 2. The compounds of the present invention (test compounds) suspended in 0.5% CMCNa were forcibly administered orally at a dose of 100 mg/kg at 1 hour before and 16 hours after challenge. As vehicle control group, only 0.5% CMCNa solution were administered orally, and as positive control group, Prednisolone, steroid hormone, and Tranilast were administered orally at the doses of 10 mg/kg and 100 mg/kg, respectively.
Increase (%)=(A-B)/B×100 (Equation 2)
A: thickness of the ear at 24 hours after challenge
B: thickness of the ear before challenge
Inhibition(%)=(C-D)/C×100 (equation 3)
C: The increase (%) in vehicle control group
D: The increase (%) in test compounds group or positive control group

[3] = system: airway resistance in experimental asthma model; assay: Effect on experimental asthma model in guinea pigs; assay type: in vivo, guinea pigs (Male hadley); details: Cavia porcellus; 100 mg/kg oral, OVA challenge, guinea pigs; Table 7
Method: The asthma is typical allergic disease and we carried out this pharmacological test by well known experimental asthma model in guinea pigs in order to confirm that the compounds of the present invention suppress the asthma. In the following, the method of the pharmacological test will be explained.
Method: Male hadley guinea pigs were immunized by intraperitoneal injection of saline (1 ml) containing 5 mg of ovalbumine (OVA) three times at interval of one week. 2 weeks after final immunization, the animals were challenged by inhalation of 1% OVA-saline solution for 1 minute and then the airway resistance of the animals were measured for 30 minutes with PULMOS-1 (Medical Interface Project Station Inc.) after the inhalation. The compounds of the present invention (test compounds) suspended in 0.5% CMCNa were given orally at a dose of 100 mg/kg. As positive control group, Disodium Cromoglicate (DSCG), well known anti-allergic agent, in saline were injected at a dose of 20 mg/kg into the vein of the animals. As vehicle control group, only 0.5% CMCNa solution were given orally. The inhibition (%) of the airway resistance in vehicle control group was calculated according to equation 5 and the result was shown in Table 7. Each experimental group consisted of 5 guinea pigs. [formula] In equation 5: A: Maximum airway resistance in vehicle control group
B: Maximum airway resistance in test compounds group or positive control group

COc1ccc2c(OCc3ccccc3)c(O[C@@H]3O[C@H](COC(C)=O)[C@H](OC(C)=O)[C@H](OC(C)=O)[C@H]3OC(C)=O)c(=O)oc2c1 [compound 7, 7-methoxy-4-benzyloxy-3-(tetra-O-acetyl-β-D-galactopyranosyloxy)-2H-1-benzopyran-2-one]
inhibition in vivo at 100 mg/kg [1]: 41.1%
inhibition in vivo at 100 mg/kg [2]: 40.3%
inhibition in vivo at 100 mg/kg [3]: 43.7%

O=c1oc2cc(OCc3ccccc3)ccc2c(O[C@@H]2O[C@H](CO)[C@H](O)[C@H](O)[C@H]2O)c1O [compound 104]
inhibition in vivo at 100 mg/kg [1]: 44.2%
inhibition in vivo at 100 mg/kg [2]: 46.1%
inhibition in vivo at 100 mg/kg [3]: 63.3%

CCCCOc1ccc2c(O[C@@H]3O[C@H](CO)[C@H](O)[C@H](O)[C@H]3O)c(O)c(=O)oc2c1 [compound 93]
inhibition in vivo at 100 mg/kg [1]: 57.6%
inhibition in vivo at 100 mg/kg [2]: 59.9%
inhibition in vivo at 100 mg/kg [3]: 60.5%

CC(C)=CCC/C(C)=C/COc1ccc2c(O[C@H]3O[C@H](CO)[C@@H](O)[C@H](O)[C@@H]3O)c(O)c(=O)oc2c1 [compound 85]
inhibition in vivo at 100 mg/kg [1]: 47.6%
inhibition in vivo at 100 mg/kg [2]: 47.2%
inhibition in vivo at 100 mg/kg [3]: 48.5%

COc1ccc2c(O[C@@H]3O[C@H](CO)[C@@H](O)[C@H](O)[C@H]3O)c(OC(=O)c3ccccc3)c(=O)oc2c1 [compound 73]
inhibition in vivo at 100 mg/kg [1]: 45.8%
inhibition in vivo at 100 mg/kg [2]: 45.8%
inhibition in vivo at 100 mg/kg [3]: 44.7%

O=C(Oc1ccc2c(O[C@@H]3O[C@H](CO)[C@@H](O)[C@H](O)[C@H]3O)c(O)c(=O)oc2c1)c1ccccc1 [compound 72]
inhibition in vivo at 100 mg/kg [1]: 46.9%
inhibition in vivo at 100 mg/kg [2]: 47.8%
inhibition in vivo at 100 mg/kg [3]: 49.5%

CC(C)Oc1ccc2c(O[C@H]3O[C@H](CO)[C@@H](O)[C@H](O)[C@@H]3O)c(O)c(=O)oc2c1 [compound 83]
inhibition in vivo at 100 mg/kg [1]: 49.3%
inhibition in vivo at 100 mg/kg [2]: 49.1%
inhibition in vivo at 100 mg/kg [3]: 46.9%

CCCCCCCCCCCCOc1ccc2c(O[C@H]3O[C@H](CO)[C@@H](O)[C@H](O)[C@@H]3O)c(O)c(=O)oc2c1 [compound 82]
inhibition in vivo at 100 mg/kg [1]: 47.3%
inhibition in vivo at 100 mg/kg [2]: 48.7%
inhibition in vivo at 100 mg/kg [3]: 55.1%

CCCCCCCCCCCCOc1ccc2c(O[C@@H]3O[C@H](CO)[C@H](O)[C@H](O)[C@H]3O)c(OC(C)=O)c(=O)oc2c1 [compound 103]
inhibition in vivo at 100 mg/kg [1]: 51.1%
inhibition in vivo at 100 mg/kg [2]: 48.3%
inhibition in vivo at 100 mg/kg [3]: 65.3%

O=c1oc2cc(OCc3ccccc3)ccc2c(O)c1O[C@@H]1O[C@H](CO)[C@@H](O)[C@H](O)[C@H]1O [compound 22]
inhibition in vivo at 100 mg/kg [1]: 53.8%
inhibition in vivo at 100 mg/kg [2]: 53.4%
inhibition in vivo at 100 mg/kg [3]: 59.4%

CCCCOc1ccc2c(O[C@@H]3O[C@H](CO)[C@@H](O)[C@H](O)[C@H]3O)c(OC(C)=O)c(=O)oc2c1 [compound 74]
inhibition in vivo at 100 mg/kg [1]: 46.8%
inhibition in vivo at 100 mg/kg [2]: 47%
inhibition in vivo at 100 mg/kg [3]: 55.4%

CC(C)=CCC/C(C)=C/COc1ccc2c(O[C@@H]3O[C@H](CO)[C@H](O)[C@H](O)[C@H]3O)c(O)c(=O)oc2c1 [compound 99]
inhibition in vivo at 100 mg/kg [1]: 58.6%
inhibition in vivo at 100 mg/kg [2]: 59.4%
inhibition in vivo at 100 mg/kg [3]: 77.7%

CCCCCCCCOc1ccc2c(O[C@@H]3O[C@H](CO)[C@H](O)[C@H](O)[C@H]3O)c(O)c(=O)oc2c1 [compound 94]
inhibition in vivo at 100 mg/kg [1]: 63.3%
inhibition in vivo at 100 mg/kg [2]: 64.7%
inhibition in vivo at 100 mg/kg [3]: 82.6%
